Source: US20120245343A1, “ARGININE DERIVATIVES OR SALTS THEREOF EXHIBITING THE EFFECTS OF IMPROVING SEXUAL FUNCTION, COMPOSITION FOR IMPROVING SEXUAL FUNCTION COMPRISING SAME, AND METHOD FOR PREPARING SAME” (priority 2009, published 2012)

Assays:
[1] = system: activated eNOS; test: Expression of activated eNOS in endothelial cells; format: cell-based; conditions: immunoblotting, FIG. 11
Description: Endothelial cells (BAECs) previously treated with the samples were washed with cold PBS buffer (pH 7.2) twice and then treated with RIPA lysis buffer [50 mM Tris-HCl, 150 mM NaCl, 0.5% sodium deoxycholate, 1% NP 40, 1% phosphatase inhibitor cocktail, 1 mM PMSF] in 150 μL/well to collect cell extracts. The protein content of the collected cell extracts was determined using Bradford assay, and then 25 μg of the protein was separated by using SDS-PAGE and transferred to nitrocellulose membrane. The nitrocellulose membrane was blocked with 1% BSA (Bovine serum albumin) solution at room temperature for 1 hour, and reacted with a primary antibody specific for the target protein at 4° C. for 12 hours. Upon completion of the reaction, the nitrocellulose membrane was washed with TBST (10 mM Tris-HCl, 150 mM NaCl, 0.05% NP 40) several times, and reacted with a secondary antibody binding to HRP (Horse radish peroxidase) at room temperature for 1 hour. After that, the nitrocellulose membrane was washed again with TBST and the target protein was confirmed by using ECL solution. To identify the target protein, luminesent image analyzer (LAS 4000 mini) were used. […] It is possible to produce nitric oxide (NO) when eNOS is phosphorylated to be activated. […]

[2] = system: arginase; conditions: for Km: read-out: Km of arginase; for Km / Vmax of arginase: substrate of arginase, 55° C., 10 minutes, pH 10.0
Description: 20 mU arginase was dissolved in 150 μL of 0.1M carbonate-bicarbonate buffer (pH 10.0). […] After that, 750 μL of acetic acid was added to the reaction mixture so as to stop the reaction. Then, 250 μL of ninhydrin solution was added to the mixture and was reacted at 100° C. for 1 hour. The reaction mixture was cooled and the absorbance was measured at 515 nm using ELISA reader.
A standard curve was created by using 0.01-10 μM of L-ornithine, and then the arginase activity was calculated and represented from the ornithine standard curve.

[3] = system: nNOS; test: Expression of nNOS in penile tissues by immunoblotting; format: in vivo; conditions: male Sprague-Dawley rats, orally administered for 7 days twice a day; AFG 200 and 400 mg/kg/day, BGE 400 mg/kg/day; vs control group; FIG. 8
Description: (§1) 8 weeks old male Sprague-Dawley rats were obtained from Orient Co., Ltd. (Korea) and used as exprimental animals. A breeding cage was conditioned with artificial lighting for 12 hours (8:00 a.m. to 8:00 p.m) and maintained at 20±3° C. The rats were provided with purified water and fed with pellet diet (Samyang diet, Korea). Food and water were not limited and supplied to the rats at a certain time of 9:00 a.m. to 10:00 a.m. every day.
(§2) 8 weeks old male Sprague-Dawley rats were allowed to be adapted to the environment of the breeding cage. […] The amount of dietary intake was measured at a certain time of 9:00 a.m. to 10:00 a.m. every day. […]
(§3) After quickly pouring liquid nitrogen into the tissues and pulverizing the tissues, proteins were extracted by RIPA lysis buffer (pH 7.4) containing 50 mM Tris-HCl, 1% NP-40, 0.25% sodium deoxycholate, 150 mM NaCl, 1 mM EDTA, 1 mM PMSF, 1 mM sodium orthovanadate, 1 mM NaF, 1 mg/mL aprotinin, 1 mg/mL leupeptin and 1 mg/mL pepstatin. After quantifying the extracted proteins using Bio-Rad protein assay kit, 30 μg and 40 μg of proteins were separated by SDS-PAGE using 8% acrylamide gel for 2 hours, and transferred to nitrocellulose membrane with being blocked by 2% BSA. […]

[4] = system: eNOS; test: Expression of eNOS in penile tissues by immunoblotting; format: in vivo; conditions: male Sprague-Dawley rats, orally administered for 7 days twice a day; AFG 200 and 400 mg/kg/day, BGE 400 mg/kg/day; vs control group; FIG. 8
Description: as §1, §2, §3

[5] = system: cGMP; test: Measurement of cGMP in penile tissues; format: in vivo; conditions: male Sprague-Dawley rats, FIG. 10
Description: as §1
(§4) 8 weeks old male Sprague-Dawley rats were allowed to be adapted to the environment of the breeding cage. Depending on their body weight, the rats were divided into 5 groups of control group (saline), Viagra® group (1.7 mg/kg/day), two AFG groups (200 and 400 mg/kg/day) and BGE (conventional red ginseng) group (400 mg/kg/day) and orally administered for 7 days twice a day (in the morning and in the afternoon). The amount of dietary intake was measured at a certain time of 9:00 a.m. to 10:00 a.m. every day.
After the end of feeding period, the rats were fasted for 12 hours and anesthetized with […]. […]
The concentration of cGMP was measured by a method which slightly modifies methods proposed by Park (J. Ethnopharmacol, 2004) and Knowles (Biochem. J, 1990). […]
A standard curve was created by using 0.8-50 pmol/mL of cGMP, and the concentration of cGMP was measured by cGMP ELISA kit (Aassay Designs, Inc., Michigan). […]

[6] = system: nitric oxide (NO); test: Measurement of nitric oxide (NO) in penile tissues; format: in vivo; conditions: male Sprague-Dawley rats, orally administered for 7 days twice a day; AFG 200 and 400 mg/kg/day, BGE 400 mg/kg/day; vs control group; FIG. 9
Description: as §1
as §4, with “day. […]” for “day.”
The amount of the produced nitric oxide was measured by a method which slightly modifies methods proposed by Park (J. Ethnopharmacol, 2004) and Knowles (Biochem. J, 1990). […]
For 200 μL of the supernatant, the fluorescence intensity of DAF was measured at 485 nm of excitation wavelength and at 535 nm of emission wavelength using a fluorescence reader (TECAN Trading AG, Switzerland).

Row | SMILES | expression of the activated eNOS in the endothelial cells (BAECs) [1] | decomposition rate of arginase as compared with arginine [2] | Km [2] [µM] | Vmax of arginase [2] | expression of nNOS in the penile tissues [3] | expression of eNOS in the penile tissues [4] | concentration of cGMP in the penile tissues ([5]; orally administered for 7 days twice a day, AFG 200 and 400 mg/kg/day, BGE 400 mg/kg/day, Viagra 1.7 mg/kg/day, vs negative control group) | increase of the concentration of cGMP compared with the positive control group of Viagra ([5]; penile tissues) | production of nitric oxide (NO) in the penile tissues [6]
1 | NC(N)=NCCC[C@H](NC[C@@]1(O)OC[C@@H](O)[C@@H](O[C@@H]2O[C@H](CO)[C@@H](O)[C@H](O)[C@H]2O)[C@@H]1O)C(=O)O [AFG, arginyl-fructosyl-glucose] | increased | very low | 129 | 588 µmol/min | increased | increased | increased | less than the positive control group | increased
2 | N=C(N)NCCC[C@H](N)C(=O)O [Arginine, L-arginine] |  |  | 12 | 1,000 μmoles/min |  |  |  |  | 
